Test system: male ICR mouse
Experiment: Passive avoidance test: dementia treatment test (scopolamine)
Type: in vivo
Settings: scopolamine 1 mg/kg intraperitoneally after training; test after 24 hours; FIG. 5B
Method: A passive avoidance test was carried out using a Gemini avoidance system (San Diego Instruments, USA) one hour after extracts (fraction T, fraction C, fraction CM, or fraction M) of Fructus Psoraleae were orally administered to a male ICR mouse (20 g) in a dose of 10 mg/kg. The test was modified on the basis of a method by Kumar, et al. and carried out as follows (Kumar, V., Singh, P. N., Muruganandan, A. V., Bhattacharya, Effect of Indian Hypericum perforatum Linn on animal models of cognitive dysfunction; J Ethnopharmacology 72, p 119-128, 2000).
On the first day of a training test, a mouse was put into the bright box to be acclimated for 300 seconds, prior to moving the mouse into a dark box by automatically opening a door. If the mouse moved into a dark box, it was electrically stimulated one second at 0.3 mA. As soon as a training session was finished, scopolamine was intraperitoneally administered in a dose of 1 mg/kg. At the test after 24 hours, the mouse was acclimated in the bright box for 300 seconds, prior to moving the mouse into the dark box by opening a door. The time to move into the dark box was measured at this time. […]

`CN1[C@@H]2C[C@@H](OC(=O)[C@H](CO)c3ccccc3)C[C@H]1[C@@H]1O[C@@H]12` [scopolamine] was tested, and the “memory failure compared with a control group” value was 66.6%.

— patent US20060099284A1, “Composition containing an extract of fructus psoraleae for inhibiting anxiety and depression, improving memory and treating dementia” (priority 2004, published 2006)
